Laboratory results taken from patent US20230398205A1, “SARS-COV-2 IMMU[…] CONSTRUCTS AND USES THEREOF” (TScan Therapeutics, Inc., priority 2020, published 2023).
Where two headings read alike, the source gives them in different places. Where no end group is shown, it is not given here.

Tests used:
Assay type in all cases: cell-based, human
[1] = tested on: memory CD8 T cells from convalescent COVID-19 patients
[2] = tested on: memory CD8+ T cells specific for A*02:01 epitopes; conditions: Allele A02
[3] = tested on: naïve CD8 T cells isolated from healthy donors; conditions: 10 days of expansion; tetramer staining; FIG. 14, FIG. 15

Row | Sequence | % of Pts (Screen M+ 2SD) ([1]; Allele A01) [%] | % of Pts (Tetramer) [2] [%] | also measured
1 | DTDFVNEFY [DTD] | 40 |  | 
2 | LLLDRLNQL [LLL] |  | 22.2 | % of Pts (Screen M+ 2SD) ([1]; Allele A02): 33.3%
3 | LLYDANYFL [LLY] |  | 55.6 | 
4 | NTCDGTTFTY [NTC] | 60 |  | 
5 | YLQPRTFLL [YLQ] |  |  | expansion of peptide-specific T cells from the naïve T cell population [3]: induces an expansion of peptide-specific T cells
